Test results published in patent publication US6281201A, “Base-modified derivatives of 2',5'-oligoadenylate and antiviral uses thereof” (Temple University- of the Commonwealth System of Higher …, priority 1999, dated 2001).

Experiments:
HIV-1 = assay: Inhibition of HIV-1 replication: infected centers assay, HIV-1-induced syncytia formation; type: cell-based, HIV-1 strain IIIB; conditions: 300 μM (table footnote: 300 μm [sic]); PBL treated 2 h, HIV-1 IIIB MOI approx. 0.1; Sup T1 cells, read at 72 hours; mean of triplicates, variance did not exceed 5-10%
Protocol: (§1) Three studies were performed to determine the antiviral activity of the (2'-5')oligonucleotide derivatives of the present invention: (i) inhibition of HIV-1-replication, (ii) inhibition of HIV-1 reverse-transcriptase (RT) activity, and (iii) activation of recombinant human GST-RNase L. All compounds were tested at a concentration of 300 μM.
The infected centers assay as described by Henderson et al., Virology 1991, 182, 186, was used to measure the ability of the trimer core compounds of the invention to inhibit HIV-1 induced syncytia formation, an indicator of HIV-1 replication in T cells. Freshly isolated peripheral blood lymphocytes (PBL) were treated with 2-5A trimer or derivatives for 2 hours and infected with HIV-1 strain IIIB at a multiplicity of infection of approximately 0.1. The infected PBL were maintained in RPMI-1640 medium supplemented with 10% (v/v) heat-inactivated fetal calf serum at 37° C. in a humidified 5% CO2 in air atmosphere. After 48 hours, the cells were washed twice in Hank's balanced salt solution, serially diluted and seeded into multiple wells of a 96-well microtiter plate. Immediately, 2×10^5 exponentially growing Sup T1 cells were added to each well; Sup T1 cells readily form a syncytium with a cell which is productively infected with HIV-1. The wells were examined daily for the presence of syncytia, using a tissue culture microscope. The first signs of syncytia formation can be seen in 12 hours, with some complete syncytia developing by 24 hours. Final results were read at 72 hours. Each syncytium was counted as a single infected cell. The number of syncytia per seeded cell is determined and expressed as an infected center per infected cell. The number of syncytia per 10^4 cells was 121±16 for the control Sup T1 cells.
^b Inhibition of HIV-1 replication was determined by HIV-1-induced
syncytia formation (fold reduction) for each compound. The number of
syncytia/10^4 cells was 121 ± 16 for the control Sup T1 cells. The

[1] = system: HIV-1 reverse-transcriptase; assay: Inhibition of HIV-1 reverse-transcriptase (RT) activity in culture supernatant of infected Sup T1 cells; type: cell-based; conditions: 300 μM, 6 h pretreatment of Sup T1 cells; supernatant 96 h post-infection; mean of duplicates, variance did not exceed 5-10%
Protocol: as §1
Sup T1 cells were treated with trimer core compound at 300 μM for 6 hours and then infected with HIV-1 at a multiplicity of infection of approximately 0.1. At 96 hours post-infection, culture supernatant was removed and HIV-1 RT activity was assayed […] as described by Henderson et al., Virology 1991, 182, 186. Briefly in this method, 25 μl of culture supernatant was added to a 50 μl cocktail containing 50 mM Tris (pH 8.0), 20 mM dithiothreitol, 10 mM MgCl2, 60 mM NaCl, 0.05% Nonidet p-40, 5 μg/ml oligodeoxythymidylic acid, 10 μg/ml polyriboadenylic acid, 10 μM deoxythymidine triphosphate and 1mCi [α^32 P]thymidine 5'-triphosphate. The mixture was incubated at 37° C. for 2 hours. Fifty microliters of the cocktail were then spotted onto diethylaminoethyl (DEAE) paper, dried, washed with 2×SSC solution (three times for 10 minutes each time) and 95% ethanol (two times for 5 minutes each time), dried and exposed to radiographic film for 18 to 24 hours at -80° C. The filters were cut and final quantitation was determined by scintillation spectrometry.
The data for the HIV-1 RT activity is shown in Table 1 as a percent of RT activity. Control values for RT activity ranged from 15,000 to 16,000 dpm [α^32 P] incorporated.
^c Percent inhibition of reverse-transcriptase (HIV-1 RT) activity.
Control values for HIV-1 RT activity ranged from 15000 to 16000 dpm
incorporated. The mean of duplicate determinations is shown; variance did

[2] = system: recombinant human GST-RNase L; assay: Activation of recombinant human GST-RNase L (hydrolysis of poly(U)-3'-[^32 P]pCp); type: biochemical; conditions: 300 μM; mean of duplicates, variance did not exceed 5-10%
Protocol: as §1
Human recombinant RNase L was expressed in E. coli(DH5α) as a fusion protein of glutathione-S-transferase (GST). Activation of human recombinant GST-RNase L was measured as the percent of poly(U)[^32 P]pCp hydrolyzed in the presence of authentic 2',5'-oligoadenylate trimer core or trimer core analog of the invention as described by Sobol et al., J. Biol. Chem. 1995, 270, 5963. The data is shown in Table 1 as the mean of duplicate determinations.
^d The activation of recombinant human RNase L was measured as the
percent hydrolysis of poly(U)-3'-[^32 P]pCp in the presence of the
trimers 22-29. The mean of duplicate determinations is shown; variance did

## 1-(β-D-Ribofuranosyl)-1H-1,2,4-triazole-3-carboxamide]yl-(2'-5')-adenylyl-(2'-5')-adenosine Bis(triethylammonium) Salt [Compound 28]
HIV-1
  Syn: inhibition of HIV-1 replication, HIV-1-induced syncytia formation (fold reduction): 1.2 fold
[1]
  RT: percent inhibition of reverse-transcriptase (HIV-1 RT) activity: 99.5%
[2]
  RNase L: activation of recombinant human RNase L, percent hydrolysis of poly(U)-3'-[^32 P]pCp: 0%

## Adenylyl-(2'-5')-N^6 -benzyladenylyl-(2'-5')-adenosine Bis(triethylammonium) Salt [Compound 23]
HIV-1
  Syn: inhibition of HIV-1 replication, HIV-1-induced syncytia formation (fold reduction): > 1500 fold
[1]
  RT: percent inhibition of reverse-transcriptase (HIV-1 RT) activity: 7.6%
[2]
  RNase L: activation of recombinant human RNase L, percent hydrolysis of poly(U)-3'-[^32 P]pCp: 34.8%

## Adenylyl-(2'-5')-[1-(β-D-ribofuranosyl)-1H-1,2,4-triazole-3-carboxamide]yl-(2'-5')-adenosine Bis(triethylammonium) Salt [Compound 27]
HIV-1
  Syn: inhibition of HIV-1 replication, HIV-1-induced syncytia formation (fold reduction): 7.0 fold
[1]
  RT: percent inhibition of reverse-transcriptase (HIV-1 RT) activity: 99.7%
[2]
  RNase L: activation of recombinant human RNase L, percent hydrolysis of poly(U)-3'-[^32 P]pCp: 9.4%

## Adenylyl-(2'-5')-adenylyl-(2'-5')-1-(β-D-ribofuranosyl)-1H-1,2,4-triazole-3-carboxamide Bis(triethylammonium) Salt [Compound 26]
HIV-1
  Syn: inhibition of HIV-1 replication, HIV-1-induced syncytia formation (fold reduction): 1.6 fold
[1]
  RT: percent inhibition of reverse-transcriptase (HIV-1 RT) activity: 99.7%
[2]
  RNase L: activation of recombinant human RNase L, percent hydrolysis of poly(U)-3'-[^32 P]pCp: 87.7%

## Adenylyl-(2'-5')-adenylyl-(2'-5')-N^6 -benzyladenosine Bis(triethylammonium) Salt [Compound 22]
HIV-1
  Syn: inhibition of HIV-1 replication, HIV-1-induced syncytia formation (fold reduction): > 1500 fold
[1]
  RT: percent inhibition of reverse-transcriptase (HIV-1 RT) activity: 33%
[2]
  RNase L: activation of recombinant human RNase L, percent hydrolysis of poly(U)-3'-[^32 P]pCp: 37.4%

## N^6 -Benzyladenylyl-(2'-5')-N^6 -benzyladenylyl-(2'-5')-N^6 -benzyladenosine Bis(triethylammonium) Salt [Compound 25]
HIV-1
  Syn: inhibition of HIV-1 replication, HIV-1-induced syncytia formation (fold reduction): > 1500 fold
[1]
  RT: percent inhibition of reverse-transcriptase (HIV-1 RT) activity: 10.6%
[2]
  RNase L: activation of recombinant human RNase L, percent hydrolysis of poly(U)-3'-[^32 P]pCp: 13.6%

## N^6 -Benzyladenylyl-(2'-5')-adenylyl-(2'-5')-adenosine Bis(triethylammonium) Salt [Compound 24]
HIV-1
  Syn: inhibition of HIV-1 replication, HIV-1-induced syncytia formation (fold reduction): > 1500 fold
[1]
  RT: percent inhibition of reverse-transcriptase (HIV-1 RT) activity: 16.7%
[2]
  RNase L: activation of recombinant human RNase L, percent hydrolysis of poly(U)-3'-[^32 P]pCp: 0%
